Results: PMC9774939, “Optimization of Pyrazole Compounds as Antibiotic Adjuvants Active against Colistin- and Carbapenem-Resistant Acinetobacter baumannii” (Antibiotics, 2022)
Converted amounts (≈) assume the structure as drawn.

What was measured:
[1] = test system: eight reference strains, Gram-positive and Gram-negative; experiment: Agar diffusion test, direct antibacterial activity; assay type: cell-based; details: for direct-acting antibacterial activity (agar diffusion): eight reference strains; for growth inhibition zone diameter: agar diffusion, on Gram-positive organisms
Method: Compounds 3–40, 42, 44–47, and 49 (Scheme 1, Scheme 2, Scheme 3, Scheme 4 and Scheme 5) were subjected to a detailed investigation of their direct and synergistic antibacterial activity and potential cytotoxicity by using several methods. The direct antibacterial activity of these compounds was determined using both agar diffusion and broth microdilution methods. The former was initially used to identify potentially active compounds and was tested on eight reference strains, with representatives of both Gram-positive and Gram-negative clinically relevant bacterial species or genera (Figure 4).
The compounds were provided as powders and dissolved in 100% DMSO at a final concentration of 50 mg/mL. When a compound was not soluble, DMSO was further added to lower the concentration to 25 mg/mL or, when necessary, 12.5 or 6.25 mg/mL, until the compound was completely solubilized. The primary screen used in the evaluation of the direct antibacterial activity through an agar diffusion test was implemented on a 8-channel, automated liquid-handling platform (PerkinElmer Janus Integrator, Waltham, Mass.), which was located under a custom-made class 1000 laminar flow cabinet (Faster, Cornaredo, Italy). Briefly, 1-well plates (Thermo Fisher Scientific, Waltham, Mass.), previously filled with Mueller–Hinton Agar medium, were inoculated with a suspension of the bacterium in a sterile 0.9% NaCl solution containing 1.5 × 10^8 CFU/mL, using a sterile swab. Indicator organisms included 4 Gram-positive (Bacillus subtilis ATCC 6633, Enterococcus faecalis ATCC 29212, Staphylococcus epidermidis ATCC 14990, and Streptococcus pyogenes ATCC 12344) and 4 Gram-negative (Escherichia coli CCUG^T, Klebsiella pneumoniae ATCC 13833, Pseudomonas aeruginosa ATCC 27853, and Acinetobacter baumannii ATCC 17978) strains, which were routinely propagated using Mueller–Hinton Agar plates. In total, 2 μL of each solution of compounds was dispensed on the plate surface (corresponding to 100, 50, 25, or 12.5 μg of compound according to its solubility). The controls included the solvent (100% DMSO), kanamycin, piperacillin, ceftazidime, vancomycin, and teicoplanin. The results were recorded as the diameter of the growth inhibition zone. The inhibition zones of the controls (max variation from expected diameter, ± 1 mm) were used as the validation criteria. The assays were performed at least in duplicate, and the position in which a single compound was spotted on the plate was randomly modified in any successive experiment.

[2] = test system: bacterial reference strains; experiment: Broth microdilution MIC, direct activity; assay type: cell-based
Method: (§1) The minimum inhibitory concentration (MIC) and minimum bactericidal concentration (MBC) of the compounds were determined in triplicate using Mueller–Hinton broth and a bacterial inoculum of 5 × 10^5 CFU/mL, as recommended by the CLSI [26]. The minimum antibacterial concentration (MAC) of the compounds was determined in the presence of a fixed and subinhibitory concentration of colistin (as mentioned above).

[3] = test system: Acinetobacter baumannii ATCC 17978; experiment: MAC determination in the presence of subinhibitory colistin; assay type: cell-based; details: for MAC Aba: in the presence of 0.5 × MIC colistin; for MIC/MAC Ratio Aba: minimal ratio of MIC of compound alone to MAC with 0.5 × MIC colistin
Method: as §1

[4] = test system: Escherichia coli CCUG^T; experiment: as above; assay type: cell-based; set-up: key to MAC Eco: -: No synergistic activity; details: for MAC Eco: in the presence of 0.5 × MIC colistin; for MIC/MAC Ratio Eco: minimal ratio of MIC of compound alone to MAC with 0.5 × MIC colistin
Method: as §1

[5] = test system: Klebsiella pneumoniae ATCC 13833; experiment: as above; assay type: cell-based; set-up: key to MAC Kpn: -: No synergistic activity; details: for MAC Kpn: in the presence of 0.5 × MIC colistin; for MIC/MAC Ratio Kpn: minimal ratio of MIC of compound alone to MAC with 0.5 × MIC colistin
Method: as §1

[6] = test system: Enterococcus faecalis; experiment: Broth microdilution MIC; assay type: cell-based; details: compound alone
Method: as §1

[7] = test system: Bacillus subtilis; experiment: Broth microdilution MIC; assay type: cell-based; details: compound alone
Method: as §1

[8] = test system: Staphylococcus aureus; experiment: Broth microdilution MIC; assay type: cell-based; details: compound alone
Method: as §1

[9] = test system: Streptococcus pyogenes; experiment: Broth microdilution MIC; assay type: cell-based; details: compound alone
Method: as §1

[10] = test system: K. pneumoniae ATCC 13833; experiment: Chequerboard analysis with colistin; assay type: cell-based, Klebsiella pneumoniae; details: combination with colistin; synergy when ≤0.5
Method: (§2) The chequerboard analysis is a two-dimensional array in which individual microplate wells contain a unique combination of the concentrations of the tested compound and colistin. Tested concentrations of the compound ranged from 64 to 0.06 μg/mL along the x-axis, whereas polymyxin E1 concentrations ranged from 2 to 0.03 μg/mL (or 32–0.5 μg/mL when polymyxin E1-resistant clinical isolates were used) and varied along the y-axis. Determining the fractional inhibitory concentration (FIC) of both compounds and computing the average FIC index allowed us to determine whether a synergistic, additive, or antagonistic activity between the tested compounds could be observed. A synergistic activity occurred when the average FIC index was equal to or less than 0.5 [21, 27].

[11] = test system: K. pneumoniae SI-004Bo; experiment: Chequerboard analysis with colistin; assay type: cell-based, Klebsiella pneumoniae; details: combination with colistin; pandrug-resistant, colistin-resistant isolate
Excerpt: (§3) Carbapenem-resistant, colistin-resistant, and XDR clinical isolates were kindly provided by Prof. Gian Maria Rossolini (University of Florence, Italy). Klebsiella pneumoniae SI-004Bo is a KPC-producing, pandrug-resistant isolate (KKBO-4 [17]) selected in vivo during colistin therapy (colistin resistance mechanism, IS-mediated insertional inactivation of mgrB). Acinetobacter baumannii N50 is an OXA-24-producing clinical isolate resistant to all β-lactams, aminoglycosides, and fluoroquinolones.
as §2

[12] = test system: A. baumannii N50; experiment: Chequerboard analysis with colistin; assay type: cell-based, Acinetobacter baumannii; details: combination with colistin; MDR, colistin-resistant isolate
Excerpt: as §3, §2

[13] = test system: E. coli CCUG^T; experiment: Chequerboard analysis with colistin; assay type: cell-based, Escherichia coli; details: combination with colistin; synergy when ≤0.5
Method: as §2

[14] = test system: A. baumannii ATCC 17978; experiment: Chequerboard analysis with colistin; assay type: cell-based, Acinetobacter baumannii; details: combination with colistin; synergy when ≤0.5
Method: as §2

[15] = test system: Acinetobacter baumannii N50; experiment: MBC determination in the presence of colistin; assay type: cell-based; details: in the presence of 2 µg/mL of colistin
Method: as §1

[16] = Hemolytic activity; assay type: cell-based; details: 0.025–10 μg of compound
Method: The hemolytic activity of compounds 1, 2, 8, 9, 45, and 49 (0.025–10 μg) was investigated using the method described by Bechlars et al.. Triton X-100 was used as the hemolysis control and DMSO as the negative control.

| MIC [6] [µg/mL] | MIC [7] [µg/mL] | MIC [8] [µg/mL] | MIC [9] [µg/mL] | SMILES | melting point [°C] | direct-acting antibacterial activity (agar diffusion) [1] | MIC [2] [µg/mL] | growth inhibition zone diameter [1] | further results |
| --- | --- | --- | --- | --- | --- | --- | --- | --- | --- |
|  |  |  |  | O=C(O)CNC(=O)c1cnn(-c2ccccc2)c1-n1cccc1 [Compound 15, [[[1-Phenyl-5-(1H-pyrrol-1-yl)-1H-pyrazol-4-yl]carbonyl]amino]acetic Acid] | 191 to 194 | broad-spectrum, though moderate, direct-acting antibacterial activity | ≥ 512 |  |  |
|  |  |  |  | C[C@H](NC(=O)c1cnn(-c2ccccc2)c1-n1cccc1)C(=O)O [Compound 16, (S)-2-[[[1-Phenyl-5-(1H-pyrrol-1-yl)-1H-pyrazol-4-yl]carbonyl]amino]propanoic Acid] | 142 to 145 | broad-spectrum, though moderate, direct-acting antibacterial activity | ≥ 512 |  |  |
|  |  |  |  | CC(C)[C@H](NC(=O)c1cnn(-c2ccccc2)c1-n1cccc1)C(=O)O [Compound 17, (S)-3-Methyl-2-[[[1-phenyl-5-(1H-pyrrol-1-yl)-1H-pyrazol-4-yl]carbonyl]amino]butanoic Acid] | 150 to 152 | broad-spectrum, though moderate, direct-acting antibacterial activity | ≥ 512 |  |  |
|  |  |  |  | C[C@H](NC(=O)CNC(=O)c1cnn(-c2ccccc2)c1-n1cccc1)C(=O)O [Compound 19, N-[N-[[1-Phenyl-5-(1H-pyrrol-1-yl)-1H-pyrazol-4-yl]carbonyl]glycyl]-L-alanine] | 80 to 84 | broad-spectrum, though moderate, direct-acting antibacterial activity | ≥ 512 |  |  |
|  |  |  |  | Cc1c(C(=O)N[C@@H](Cc2ccccc2)C(=O)OC(C)(C)C)nn(-c2c(Cl)cc(Cl)cc2Cl)c1-n1c(C)ccc1C [Compound 39, tert-Butyl (S)-3-Phenyl-2-[[[4-methyl-1-(2,4,6-trichlorophenyl)-5-(2,5-dimethyl-1H-pyrrol-1-yl)-1H-pyrazol-3-yl]carbonyl]amino]propanoate] | 72 to 81 |  |  |  | MAC Aba [3]: 32 µg/mL; MIC/MAC Ratio Aba [3]: 16; MAC Eco [4]: -; MAC Kpn [5]: - |
| 32 (≈ 76 µM) | 32 (≈ 76 µM) | 32 (≈ 76 µM) | 16 (≈ 38 µM) | Cc1c(C(=O)Nc2ccc(C(=O)O)cc2)nn(-c2ccc(Cl)cc2)c1-n1cccc1 [Compound 40, 4-[[[1-(4-Chlorophenyl)-4-methyl-5-(1H-pyrrol-1-yl)-1H-pyrazol-3-yl]carbonyl]amino]benzoic Acid] | > 250 |  |  | up to 18 mm |  |
| 32 (≈ 76 µM) | 32 (≈ 76 µM) | 32 (≈ 76 µM) | 16 (≈ 38 µM) | Cc1c(C(=O)Nc2ccccc2C(=O)O)nn(-c2ccc(Cl)cc2)c1-n1cccc1 [Compound 44, 2-[[[1-(4-Chlorophenyl)-4-methyl-5-(1H-pyrrol-1-yl)-1H-pyrazol-3-yl]carbonyl]amino]benzoic Acid] | 270 to 272 |  |  | up to 18 mm |  |
|  |  |  |  | Cc1c(C(=O)Nc2ccc(O)cc2)nn(-c2ccc(Cl)cc2)c1-n1cccc1 [Compound 45, 1-(4-Chlorophenyl)-N-(4-hydroxyphenyl)-4-methyl-5-(1H-pyrrol-1-yl)-1H-pyrazole-3-carboxamide] | 226 to 228 |  |  |  | Average FIC Index [10]: 0.31; MAC Aba [3]: 8 µg/mL; MIC/MAC Ratio Aba [3]: 64; Average FIC Index [11]: 1; Average FIC Index [12]: 0.26; MAC Eco [4]: 4 µg/mL; MIC/MAC Ratio Eco [4]: 128; Average FIC Index [13]: 0.31; MAC Kpn [5]: 4 µg/mL; MIC/MAC Ratio Kpn [5]: 128; Average FIC Index [14]: 0.31; MBC [15]: > 64 µg/mL; hemolytic activity [16]: no hemolytic activity could be observed |
| 32 (≈ 60.6 µM) | 32 (≈ 60.6 µM) | 32 (≈ 60.6 µM) | 16 (≈ 30.3 µM) | CCOC(=O)NS(=O)(=O)c1ccc(NC(=O)c2nn(-c3ccc(Cl)cc3)c(-n3cccc3)c2C)cc1 [Compound 47, Ethyl [[4-[1-(4-Chlorophenyl)-4-methyl-5-(1H-pyrrol-1-yl)-1H-pyrazole-3-carboxamido]phenyl]sulfonyl]carbamate] | 188 to 190 |  |  | up to 18 mm |  |
|  |  |  |  | Cc1c(C(=O)Nc2ccc(S(C)(=N)=O)cc2)nn(-c2ccc(Cl)cc2)c1-n1cccc1 (centres unmarked) [Compound 49, 1-(4-Chlorophenyl)-4-methyl-N-[4-(S-methylsulfonimidoyl)phenyl]-5-(1H-pyrrol-1-yl)-1H-pyrazole-3-carboxamide] | 207 to 210 |  |  |  | Average FIC Index [10]: 0.39; MAC Aba [3]: 8 µg/mL; MIC/MAC Ratio Aba [3]: 64; Average FIC Index [11]: 1; Average FIC Index [12]: 0.31; MAC Eco [4]: 8 µg/mL; MIC/MAC Ratio Eco [4]: 64; Average FIC Index [13]: 0.32; MAC Kpn [5]: 4 µg/mL; MIC/MAC Ratio Kpn [5]: 128; Average FIC Index [14]: 0.38; MBC [15]: > 64 µg/mL; hemolytic activity [16]: no hemolytic activity could be observed |

| SMILES | MIC [6] [µg/mL] | MIC [7] [µg/mL] | MIC [8] [µg/mL] | MIC [9] [µg/mL] | melting point [°C] | direct-acting antibacterial activity (agar diffusion) [1] | MIC [2] [µg/mL] | growth inhibition zone diameter [1] | further results |
| --- | --- | --- | --- | --- | --- | --- | --- | --- | --- |
| Cc1c(C(=O)Nc2cccc(C(=O)O)c2)nn(-c2ccc(Cl)cc2)c1-n1cccc1 [Compound 42, 3-[[[1-(4-Chlorophenyl)-4-methyl-5-(1H-pyrrol-1-yl)-1H-pyrazol-3-yl]carbonyl]amino]benzoic Acid] | 32 (≈ 76 µM) | 32 (≈ 76 µM) | 32 (≈ 76 µM) | 16 (≈ 38 µM) | 248 to 250 | broad-spectrum, though moderate, direct-acting antibacterial activity | ≥ 512 | up to 18 mm |  |
